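Each compound was tested at five concentrations against cells in 96-well plates for 48 hours. GI50: concentration for 50% inhibition of growth.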 The source made the active and inactive calls. No stated cut-off is given here; in the data, active = GI50 up to about 1.1 µM and inactive = higher.
Assays:
Experiment in all cases: DTP human tumour cell line panel, 48 h
HL-60 = system: HL-60
UACC-62 = system: UACC-62
A549 = system: A549
CCRF-CEM = system: CCRF-CEM
HOP-92 = system: HOP-92
SF-539 = system: SF-539
SF-268 = system: SF-268
OVCAR-4 = system: OVCAR-4
M14 = system: M14
U-251 = system: U-251
HOP-62 = system: HOP-62
SK-MEL-2 = system: SK-MEL-2
SW-620 = system: SW-620
SK-MEL-5 = system: SK-MEL-5
HCC 2998 = system: HCC 2998
K562 = system: K562
786-0 = system: 786-0
SK-MEL-28 = system: SK-MEL-28
IGROV-1 = system: IGROV-1
A498 = system: A498

Measured: GI50

COc1cc(/C=C/c2ccc(C)cc2)cc(OC)c1OC
inactive: HL-60 2.97 µM | UACC-62 3.44 µM | A549 4.27 µM | CCRF-CEM 3.45 µM | HOP-92 9.33 µM | SF-539 2.42 µM | SF-268 5.37 µM | OVCAR-4 17.3 µM | M14 3.56 µM | U-251 3.78 µM | HOP-62 4.18 µM | SK-MEL-2 7.18 µM | SW-620 4.29 µM | SK-MEL-5 3.85 µM | HCC 2998 4.82 µM | K562 3.1 µM | 786-0 3.87 µM | SK-MEL-28 5.77 µM | IGROV-1 5.11 µM

CS(C)(=O)=N/C=C\C(=O)C(Cl)(Cl)Cl
inactive: HL-60 > 100 µM | UACC-62 92.3 µM | A549 > 100 µM | CCRF-CEM 44.1 µM | HOP-92 > 100 µM | SF-539 > 100 µM | SF-268 > 100 µM | OVCAR-4 > 100 µM | M14 > 100 µM | U-251 79.1 µM | HOP-62 99.1 µM | SK-MEL-2 46.8 µM | SW-620 > 100 µM | SK-MEL-5 > 100 µM | HCC 2998 > 100 µM | K562 > 100 µM | 786-0 > 100 µM | SK-MEL-28 > 100 µM | IGROV-1 93.5 µM

CC(C)c1ccc(/C=C(\NC(=O)c2ccccc2)c2nc3ccccc3[nH]2)cc1
inactive: UACC-62 37.4 µM | A549 27.9 µM | CCRF-CEM 34.1 µM | HOP-92 36.7 µM | SF-539 77.1 µM | SF-268 41 µM | OVCAR-4 30.2 µM | M14 32.3 µM | U-251 39.4 µM | SK-MEL-2 34.4 µM | SW-620 49.4 µM | SK-MEL-5 23.5 µM | K562 27.5 µM | 786-0 39.3 µM | SK-MEL-28 > 10 µM | IGROV-1 73.8 µM | A498 40.6 µM

CC(=O)OCc1cc(CCC(=O)NCCNc2c3ccccc3nc3ccccc23)cc(COC(C)=O)c1O[Si](C)(C)C(C)(C)C
inactive: HL-60 2.87 µM | UACC-62 6.9 µM | A549 7.13 µM | CCRF-CEM 3.7 µM | HOP-92 4.89 µM | SF-539 2.59 µM | OVCAR-4 6.19 µM | M14 5.26 µM | U-251 4.88 µM | HOP-62 13.6 µM | SK-MEL-2 8.95 µM | SW-620 9.44 µM | K562 2.65 µM | 786-0 8.81 µM | SK-MEL-28 4.73 µM | IGROV-1 10.4 µM | A498 1.91 µM

CC1=Nc2nc3ccccc3n2C(C)(C)C1
inactive: UACC-62 > 100 µM | A549 > 100 µM | CCRF-CEM > 100 µM | HOP-92 > 100 µM | SF-539 > 100 µM | SF-268 > 100 µM | OVCAR-4 > 100 µM | M14 > 100 µM | U-251 > 100 µM | HOP-62 > 100 µM | SK-MEL-2 > 100 µM | SW-620 > 100 µM | SK-MEL-5 > 100 µM | K562 > 100 µM | 786-0 > 100 µM | IGROV-1 > 100 µM | A498 > 100 µM

COc1cc(Nc2cnc3cc(F)c(F)cc3n2)cc(OC)c1
inactive: HL-60 > 100 µM | UACC-62 18.2 µM | A549 > 100 µM | CCRF-CEM > 100 µM | HOP-92 25.8 µM | SF-539 71 µM | SF-268 43.7 µM | OVCAR-4 > 100 µM | M14 > 100 µM | U-251 37.9 µM | HOP-62 25.9 µM | SK-MEL-2 > 100 µM | SW-620 > 100 µM | SK-MEL-5 > 100 µM | 786-0 37.9 µM | SK-MEL-28 > 100 µM | IGROV-1 > 100 µM | A498 53.6 µM

CCCC1=NC(C(F)(F)F)(C(F)(F)F)N=C(N2CCOCC2)O1
inactive: HL-60 > 100 µM | UACC-62 > 100 µM | A549 > 100 µM | CCRF-CEM > 100 µM | HOP-92 25.3 µM | SF-539 > 100 µM | SF-268 > 100 µM | OVCAR-4 80.2 µM | M14 > 100 µM | U-251 > 100 µM | HOP-62 > 100 µM | SK-MEL-2 > 100 µM | SW-620 > 100 µM | SK-MEL-5 > 100 µM | HCC 2998 > 100 µM | K562 > 100 µM | 786-0 > 100 µM | SK-MEL-28 > 100 µM | IGROV-1 > 100 µM

COc1cc(OC)c2c(c1)OC(c1ccccc1)CC2=O (stereo not given) [DIMETHYLPINOCEMBRIN]
inactive: HL-60 > 10 µM | UACC-62 > 10 µM | A549 > 10 µM | CCRF-CEM > 10 µM | HOP-92 > 10 µM | SF-539 > 10 µM | SF-268 > 10 µM | OVCAR-4 > 10 µM | M14 > 10 µM | U-251 > 10 µM | HOP-62 > 10 µM | SK-MEL-2 > 10 µM | SW-620 > 10 µM | SK-MEL-5 > 10 µM | HCC 2998 > 10 µM | K562 > 10 µM | 786-0 > 10 µM | SK-MEL-28 > 10 µM | IGROV-1 > 10 µM

COC(=O)c1onc(-c2c(OC)cc(OC)cc2OC)c1C(=O)OC
inactive: HL-60 > 100 µM | UACC-62 > 100 µM | A549 > 100 µM | CCRF-CEM > 100 µM | HOP-92 > 100 µM | SF-268 > 100 µM | OVCAR-4 > 100 µM | M14 > 100 µM | U-251 > 100 µM | HOP-62 > 100 µM | SK-MEL-2 > 100 µM | SW-620 > 100 µM | SK-MEL-5 > 100 µM | HCC 2998 > 100 µM | K562 > 100 µM | 786-0 > 100 µM | SK-MEL-28 > 100 µM | IGROV-1 > 100 µM

Cc1c(S(=O)(=O)N/C(N)=N/c2ccc(Cl)cc2)sc2ccc(Cl)cc12
inactive: HL-60 25.8 µM | UACC-62 16.5 µM | A549 19.1 µM | HOP-92 22.6 µM | SF-539 23.9 µM | SF-268 17 µM | OVCAR-4 22.2 µM | M14 17.3 µM | U-251 16.3 µM | HOP-62 18.5 µM | SK-MEL-2 17.2 µM | SW-620 22 µM | SK-MEL-5 33.6 µM | K562 36.2 µM | 786-0 17.1 µM | SK-MEL-28 21.4 µM | IGROV-1 16.1 µM | A498 15.6 µM

Cc1ccc(NC(=O)C(=O)C2C(=O)NC(=O)NC2=O)cc1C
inactive: HL-60 > 100 µM | UACC-62 > 100 µM | A549 > 100 µM | CCRF-CEM > 100 µM | HOP-92 > 100 µM | SF-539 > 100 µM | SF-268 > 100 µM | OVCAR-4 > 100 µM | M14 > 100 µM | U-251 > 100 µM | HOP-62 > 100 µM | SK-MEL-2 > 100 µM | SW-620 > 100 µM | SK-MEL-5 > 100 µM | HCC 2998 > 100 µM | K562 > 100 µM | 786-0 > 100 µM | SK-MEL-28 > 100 µM | IGROV-1 > 100 µM

— ChEMBL document CHEMBL1201862, “PubChem BioAssay data set” (2004)
